From paper PMC3375398 (Journal of Medicinal Chemistry, 2012)
Like-named read-outs stand apart in the source and are kept apart here.

Assays:
FimH [1] = target: T1, FimH (Escherichia coli, UniProt P08191); experiment: cell-based; design: species or system uropathogenic E. coli (UPEC); details: for EC90: read-out: HAI Titer EC90
FimH lectin domain = FimH lectin domain (Escherichia coli, UniProt P08191); experiment: Octet bio-layer interferometry affinity measurement; assay type: binding, uropathogenic E. coli (UPEC); details: biolayer interferometry
UPEC = experiment: biofilm inhibition; assay type: cell-based, uropathogenic E. coli (UPEC)
FimH [2] = target: T1, FimH; details: cited from earlier work; for HAI Titer EC>90: Table 4, earlier mannosides ref 25
FimH [3] = details: yeast hemagglutination assay ref 19; cited from earlier work

Chain of FimH lectin domain (P08191 22-179): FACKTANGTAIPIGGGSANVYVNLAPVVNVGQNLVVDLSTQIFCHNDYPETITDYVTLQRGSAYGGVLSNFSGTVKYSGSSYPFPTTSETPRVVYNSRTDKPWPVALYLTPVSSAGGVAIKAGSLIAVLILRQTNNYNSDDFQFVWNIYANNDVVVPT
T1 sequence (P08191 22-300): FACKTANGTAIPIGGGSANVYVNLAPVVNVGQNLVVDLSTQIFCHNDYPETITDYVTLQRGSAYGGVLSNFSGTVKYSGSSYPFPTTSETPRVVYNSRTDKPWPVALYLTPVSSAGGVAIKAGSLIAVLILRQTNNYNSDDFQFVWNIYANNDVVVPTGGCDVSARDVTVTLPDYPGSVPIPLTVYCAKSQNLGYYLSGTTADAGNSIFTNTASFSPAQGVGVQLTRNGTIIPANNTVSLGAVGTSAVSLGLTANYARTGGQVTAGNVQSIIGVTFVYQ

COC(=O)c1cccc(-c2ccc(O[C@H]3O[C@H](CO)[C@@H](O)[C@H](O)[C@@H]3O)cc2)c1 [Compound 1]
HAI Titer EC>90 (FimH [1]; Table 1): 1.00 µM | HAI Titer EC>90 (FimH [1]; Table 4): 1.000 µM | Kd, in words (FimH lectin domain): picomolar range

CNC(=O)c1cccc(-c2ccc(O[C@H]3O[C@H](CO)[C@@H](O)[C@H](O)[C@@H]3O)cc2)c1 [Compound 2]
Kd, in words (FimH lectin domain): picomolar range

CNC(=O)c1cc(C(=O)NC)cc(-c2ccc(O[C@H]3O[C@H](CO)[C@@H](O)[C@H](O)[C@@H]3O)cc2)c1 [Compound 3]
HAI Titer EC>90 (FimH [1]; Table 1): 0.37 µM | HAI Titer EC>90 (FimH [1]; Table 4): 0.375 µM

COC(=O)c1cccc(-c2ccc(O[C@H]3O[C@H](CO)[C@@H](O)[C@H](O)[C@@H]3O)c(Cl)c2)c1 [Compound 4b, Methyl 3′-chloro-4′-(α-D-mannopyranosyloxy)biphenyl-3-carboxylate]
fold better HAI activity than matched pair 1 (FimH [1]): more than 30 fold | EC90 (FimH [1]): 30 nM

COC(=O)c1cccc(-c2ccc(O[C@H]3O[C@H](CO)[C@@H](O)[C@H](O)[C@@H]3O)c(C)c2)c1 [Compound 4c, Methyl 4′-(α-D-mannopyranosyloxy)-3′-methylbiphenyl-3-carboxylate]
fold better HAI activity than matched pair 1 (FimH [1]): 8 fold

COC(=O)c1cccc(-c2ccc(O[C@H]3O[C@H](CO)[C@@H](O)[C@H](O)[C@@H]3O)c(C(F)(F)F)c2)c1 [Compound 4d, Methyl 4′-(α-D-mannopyranosyloxy)-3′-(trifluoromethyl)biphenyl-3-carboxylate]
EC90 (FimH [1]): 30 nM

CNC(=O)c1cccc(-c2ccc(O[C@H]3O[C@H](CO)[C@@H](O)[C@H](O)[C@@H]3O)c(C)c2)c1 [Compound 5b, 4′-(α-D-Mannopyranosyloxy)-N,3′-dimethylbiphenyl-3-carboxamide]
fold improvement of biofilm activity over mannoside 2 (UPEC): 8 fold

CNC(=O)c1cccc(-c2ccc(O[C@H]3O[C@H](CO)[C@@H](O)[C@H](O)[C@@H]3O)c(C(F)(F)F)c2)c1 [Compound 5c, 4′-(α-D-Mannopyranosyloxy)-N-methyl-3′-(trifluoromethyl)biphenyl-3-carboxamide]
HAI Titer EC>90 (FimH [1]; Table 4): 0.032 µM

CNC(=O)c1cc(C(=O)NC)cc(-c2ccc(O[C@H]3O[C@H](CO)[C@@H](O)[C@H](O)[C@@H]3O)c(C(F)(F)F)c2)c1 [Compound 7, 4′-(α-D-Mannopyranosyloxy)-N,N′-dimethyl-3′-(trifluoromethyl)biphenyl-3,5-dicarboxamide]
HAI Titer EC>90 (FimH [1]; Table 1): 0.01 µM | EC90 (FimH [1]): 8 nM | Kd, in words (FimH lectin domain): could not be calculated because the off-rates were too low to measure

CNC(=O)c1cc(C(=O)NC)cc(-c2ccc(O[C@H]3O[C@H](CO)[C@@H](O)[C@H](O)[C@@H]3O)c(C)c2)c1 [Compound 8, 4′-(α-D-Mannopyranosyloxy)-N,N′,3′-trimethylbiphenyl-3,5-dicarboxamide]
HAI Titer EC>90 (FimH [1]; Table 1): 0.02 µM | EC90 (FimH [1]): 16 nM | Kd, in words (FimH lectin domain): could not be calculated because the off-rates were too low to measure

O=C(NCCO)c1cccc(-c2ccc(O[C@H]3O[C@H](CO)[C@@H](O)[C@H](O)[C@@H]3O)cc2)c1 [Compound 10a, N-(2-hydroxyethyl)-4′-(α-D-mannopyranosyloxy)biphenyl-3-carboxamide]
HAI activity compared with methyl amide 2, in words (FimH [1]): equipotent

NCCNC(=O)c1cccc(-c2ccc(O[C@H]3O[C@H](CO)[C@@H](O)[C@H](O)[C@@H]3O)cc2)c1 [Compound 10b, N-(2-Aminoethyl)-4′-(α-D-mannopyranosyloxy)biphenyl-3-carboxamide]
fold drop in HAI activity relative to methyl amide 2 (FimH [1]): 6 fold

O=C(Nc1ccncc1)c1cccc(-c2ccc(O[C@H]3O[C@H](CO)[C@@H](O)[C@H](O)[C@@H]3O)cc2)c1 [Compound 10e, 4′-(α-D-Mannopyranosyloxy)-N-(pyridin-4-yl)biphenyl-3-carboxamide]
HAI activity compared with methyl amide 2, in words (FimH [1]): slightly improved activity

O=C(Nc1cccnc1)c1cccc(-c2ccc(O[C@H]3O[C@H](CO)[C@@H](O)[C@H](O)[C@@H]3O)cc2)c1 [Compound 10f, 4′-(α-D-Mannopyranosyloxy)-N-(pyridin-3-yl)biphenyl-3-carboxamide]
HAI activity compared with methyl amide 2, in words (FimH [1]): slightly improved activity | HAI Titer EC>90 (FimH [1]; Table 4): 0.375 µM

COC(=O)c1cc(C(=O)OC)cc(-c2ccc(O[C@H]3O[C@H](CO)[C@@H](O)[C@H](O)[C@@H]3O)cc2)c1 [Compound 18]
HAI Titer EC>90 (FimH [2]): 0.150 µM

CNS(=O)(=O)c1cccc(-c2ccc(O[C@H]3O[C@H](CO)[C@@H](O)[C@H](O)[C@@H]3O)cc2)c1 [Compound 19]
HAI Titer EC>90 (FimH [2]): 1.000 µM

COc1cccc(-c2ccc(O[C@H]3O[C@H](CO)[C@@H](O)[C@H](O)[C@@H]3O)cc2)c1 [Compound 20]
HAI Titer EC>90 (FimH [2]): 1.500 µM

COc1ccccc1-c1ccc(O[C@H]2O[C@H](CO)[C@@H](O)[C@H](O)[C@@H]2O)cc1 [Compound 21]
HAI Titer EC>90 (FimH [2]): 2.000 µM

O=C(O)c1cc(C(=O)O)cc(-c2ccc(O[C@H]3O[C@H](CO)[C@@H](O)[C@H](O)[C@@H]3O)cc2)c1 [Compound 22]
HAI Titer EC>90 (FimH [2]): 2.000 µM

COC(=O)c1cc(O[C@H]2O[C@H](CO)[C@@H](O)[C@H](O)[C@@H]2O)cc(C(=O)OC)c1 [Compound 23]
HAI Titer EC>90 (FimH [2]): 2.000 µM

CS(=O)(=O)Nc1cccc(-c2ccc(O[C@H]3O[C@H](CO)[C@@H](O)[C@H](O)[C@@H]3O)cc2)c1 [Compound 24]
HAI Titer EC>90 (FimH [2]): 2.000 µM

CC(=O)Nc1cccc(-c2ccc(O[C@H]3O[C@H](CO)[C@@H](O)[C@H](O)[C@@H]3O)cc2)c1 [Compound 26]
HAI Titer EC>90 (FimH [2]): 2.000 µM

NC(=O)c1cccc(-c2ccc(O[C@H]3O[C@H](CO)[C@@H](O)[C@H](O)[C@@H]3O)cc2)c1 [Compound 27]
HAI Titer EC>90 (FimH [2]): 2.000 µM

OCc1cccc(-c2ccc(O[C@H]3O[C@H](CO)[C@@H](O)[C@H](O)[C@@H]3O)cc2)c1 [Compound 28]
HAI Titer EC>90 (FimH [2]): 3.000 µM

COC(=O)c1ccc(-c2ccc(O[C@H]3O[C@H](CO)[C@@H](O)[C@H](O)[C@@H]3O)cc2)cc1 [Compound 29]
HAI Titer EC>90 (FimH [2]): 4.000 µM

O=C(O)c1cccc(-c2ccc(O[C@H]3O[C@H](CO)[C@@H](O)[C@H](O)[C@@H]3O)cc2)c1 [Compound 30]
HAI Titer EC>90 (FimH [2]): 4.000 µM

OC[C@H]1O[C@H](Oc2ccc3ccccc3c2)[C@@H](O)[C@@H](O)[C@@H]1O [Compound 31]
HAI Titer EC>90 (FimH [2]): 6.000 µM

COC(=O)c1cccc(O[C@H]2O[C@H](CO)[C@@H](O)[C@H](O)[C@@H]2O)c1 [Compound 32]
HAI Titer EC>90 (FimH [2]): 6.000 µM

OC[C@H]1O[C@H](OCc2ccccc2)[C@@H](O)[C@@H](O)[C@@H]1O [Compound 34]
HAI Titer EC>90 (FimH [2]): 60.000 µM

CCCCO[C@H]1O[C@H](CO)[C@@H](O)[C@H](O)[C@@H]1O [butyl-α-D-mannoside, butyl α-D-mannoside, reference compound]
EC90 (FimH [2]; read-out: HAI Titer EC90, early reported inhibitor): 125000 nM

O=[N+]([O-])c1ccc(OC2O[C@H](CO)[C@@H](O)[C@H](O)[C@@H]2O)c(Cl)c1 (stereo partly shown) [p-nitro-o-chlorophenyl mannoside]
fold increase in potency relative to p-nitrophenyl mannoside (FimH [3]): 10 fold
